According to publication PMC6233306 (Bioorganic & medicinal chemistry letters, 2018):

These compounds were tested on FadD32 mutant strains of Mtb (E120 and F291).
Format: cell-based, Mycobacterium tuberculosis

| SMILES | activity versus the E120 and F291 mutants compared to wild-type | FadD32 mutant MIC90 [µM] |
| --- | --- | --- |
| CNC(=O)c1cc(-c2ccccc2Cl)c2c(C)c(-c3ccncc3)c(C)cc2n1 [Compound 21b] | markedly less activity |  |
| Cc1cc2nccc(-c3ccccc3)c2c(C)c1-c1ccc(CN2CCOCC2)cc1 [Compound 8] | markedly less activity |  |
| Cc1cc2nccc(-c3cncnc3)c2c(C)c1-c1ccc(CN2CCOCC2)cc1 [Compound 15n] | markedly less activity | 100 |
| Cc1cc2nccc(-c3ccnn3C)c2c(C)c1-c1ccc(CN2CCOCC2)cc1 [Compound 15m] | markedly less activity | 100 |
